# Experimental data from patent publication US20230121611A1, “Monohydrate Salt of Denatonium Acetate” (priority 2021, published 2023).
# “Also recorded” adds a separate entry of the source.
# Tests used:
# [1] = format: physicochemical
# Procedure: Next, methyl isobutyl ketone was added and then water. In some embodiments, a lower alkyl isobutyl ketone is used in place of methyl isobutyl ketone. In some embodiments, the lower alkyl is a C1-3 alkyl. In some embodiments, the lower alkyl is methyl or ethyl. The temperature was lowered to <10° C. The remaining solid was isolated and washed with methyl isobutyl ketone to produce the final DAM (denatonium acetate monohydrate).
# [2] = Form stability of further XRPD patterns on storage or standing (reanalysis by XRPD); format: physicochemical; conditions: for XRPD form after standing on disc for 4 hours / XRPD form after standing overnight on disc: ambient lab conditions; for XRPD form after standing on disc for 4 hours: 4 hours on XRPD disc; for XRPD form after standing overnight on disc: room temperature
# Description: (§1) It was then removed from the instrument and a portion immediately analyzed by XRPD.
# The frozen sample was lyophilized on the freeze dryer until all the solvent was removed. […] This was designated as Pattern 2.
# A summary of the characterization data for the samples of Pattern 5 can be found in Table 9.
# [3] = Gravimetric Vapor Sorption (GVS) experiments; format: physicochemical
# Procedure: Several Gravimetric Vapor Sorption (GVS) experiments were carried out to investigate the behavior of DAM over a range of different relative humidity levels. […] This experiment used a similar method to GVS 1 without the steps involving 90% RH where the large mass changes were observed and equilibrium was not reached. […] Most of the mass change (1.3-1.4% increase) occurred between 0-10% RH.
# [4] = Storage under stress conditions (temperature / relative humidity); format: physicochemical; conditions: for UPLC purity after storage: input purity 99.5%
# Description: It also lost mass when taken to relative humidity levels of less than 10%.
# It also loses mass when taken to relative humidity levels of less than 10%.
# as §1
structure (smiles),measurement,setting,value
"CC(=O)[O-].CC[N+](CC)(CC(=O)Nc1c(C)cccc1C)Cc1ccccc1 [DAA, Denatonium Acetate, anhydrous]",degradation products,[1],"either (A) lidocaine and benzyl acetate or it degraded to (B) 2-(diethylamino)-3-phenyl-N-(2,6-dimethylphenylpropionamide"
CC(=O)[O-].CC[N+](CC)(CC(=O)Nc1c(C)cccc1C)Cc1ccccc1.O [DAM Pattern 2],XRPD form after storage in closed vial,[2]; 7 weeks,Conversion to Pattern 1 by XRPD
same,XRPD form after storage in closed vial,"[2]; 7 weeks, listed as Pattern 2",converted to Pattern 1; also recorded: consistent with Pattern 1
CC(=O)[O-].CC[N+](CC)(CC(=O)Nc1c(C)cccc1C)Cc1ccccc1.O [DAM Pattern 4],XRPD form after storage in closed vial,[2]; 6 weeks,Conversion to Pattern 1 by XRPD
same,XRPD form after storage in closed vial,"[2]; 6 weeks, listed as Pattern 4",conversion to Pattern 1
CC(=O)[O-].CC[N+](CC)(CC(=O)Nc1c(C)cccc1C)Cc1ccccc1.O [DAM Pattern 5],XRPD form after standing on disc for 4 hours,[2],Conversion to Pattern 1 by XRPD
same,XRPD form after standing on disc for 4 hours,[2]; listed as Pattern 5,readily convert to Pattern 1; also recorded: conversion to Pattern 1; also recorded: converted to Pattern 1; also recorded: reverted to Pattern 1
same,stability of the pattern,[2]; ambient laboratory conditions,metastable
same,XRPD form after storage in closed vial,"[2]; 6 weeks, listed as Pattern 5",converted to Pattern 1
same,XRPD form after standing overnight on disc,[2],Conversion to Pattern 1 by XRPD
same,XRPD form after standing overnight on disc,[2]; listed as Pattern 5,convert to Pattern 1; also recorded: reverted to Pattern 1
same,XRPD form under ambient laboratory conditions,[2]; within a few hours,converts to Pattern 1
"CC(=O)[O-].CC[N+](CC)(CC(=O)Nc1c(C)cccc1C)Cc1ccccc1 [DAM, denatonium acetate monohydrate]",mass change,"[3]; GVS 2, between 0-10% RH",1.4%
same,mass change,"[3]; GVS 3, between 0-10% RH",1.3-1.4%
same,sample appearance after GVS,[3]; after GVS 1 (40-90-0-90-0-40),sorption cycle. Sample had formed a solid mass with powdery
same,sample appearance after GVS,"[3]; after GVS 2 (40-80-0-80-0-40), acetate monohydrate",remained as a free-flowing powder; also recorded: Sample remained free flowing solid
same,sample appearance after GVS,"[3]; after GVS 3 (40-0-80-0-80-0-40), acetate monohydrate",remained as a free-flowing powder; also recorded: Sample remained free flowing solid
same,XRPD post GVS,"[3]; post GVS 1, 2, 3","Shows no change in form by XRPD post GVS 1, 2, 3"
same,XRPD post GVS,[3]; post GVS 2,consistent with Pattern 1
same,XRPD post GVS,[3]; post GVS 3,consistent with Pattern 1
same,hygroscopicity,"[3]; relative humidity levels above 80%, acetate monohydrate",ED21356-001-001-00 is very hygroscopic especially at levels
same,mass behaviour at low humidity,"[3]; relative humidity levels of less than 10%, acetate monohydrate",lost mass; also recorded: loses mass
same,XRPD form after storage at 0% RH,"[4]; 0% RH, open vial in GVS instrument, 2 days, acetate monohydrate",converted to Pattern 5; also recorded: consistent with Pattern 5; also recorded: change in form to Pattern 5
same,observation after storage,"[4]; 25° C., 96% RH, 5 days, acetate monohydrate",deliquesce; also recorded: Sample had deliquesced
same,XRPD after storage,"[4]; 25° C., 96% RH, 7 days",Amorphous
same,observation after storage,"[4]; 25° C., 96% RH, 7 days",deliquesced
same,UPLC purity after storage,"[4]; 25° C., 96% RH, 7 days",UPLC purity 98.9%
same,XRPD after storage,"[4]; 40° C., 75% RH, 7 days",Shows no change in form by XRPD after 7 days
same,UPLC purity after storage,"[4]; 40° C., 75% RH, 7 days",UPLC purity 99.4%
same,observation after storage,"[4]; 40° C., 75% RH, after 5 and 7 days",Remained a solid after 5 and 7 days.
